Test results: patent publication US6914045B2, “Glycopeptide antibiotics” (Wyeth Holdings Corporation, priority 2001, dated 2005)
≈ marks a conversion by molar mass, not a printed value.

What was measured:
[1] = test system: Enterococcus sp.; assay: in vitro antibacterial evaluation, MIC by broth dilution; format: cell-based; conditions: broth dilution, 18 hours at 35° C.
In short: (§1)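 Test organisms, which included recent clinical isolates resistant to methicillin, penicillin and/or vancomycin, were inoculated at 5×10^5 CFU/mL into Muller-Hinton II […] containing antibiotic at 64-0.06 μg/mL. Minimum inhibitory concentrations were then read as the lowest level inhibiting growth.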

[2] = test system: Escherichia coli; assay: as above; format: cell-based; conditions: 18 hours at 35° C.
In short: as §1

[3] = test system: Staphylococcus sp.; assay: as above; format: cell-based; conditions: broth dilution, 18 hours at 35° C.
In short: as §1

[4] = test system: Streptococcus sp.; assay: as above; format: cell-based; conditions: broth dilution, 18 hours at 35° C.
In short: as §1

[5] = test system: Staphylococcus aureus-SMITH (GC 4543); assay: acute lethal infection in mice; format: in vivo; conditions: acute lethal infection, female CD-1 mice, intraperitoneal challenge, intravenous 30 min. after infection, 7 day survival
Protocol: Methods for in Vivo Antibacterial Evaluation
The therapeutic effects of glycopeptide antibiotics of Formula I are determined against acute lethal infections with S. aureus (strain Smith), a penicillin resistant strain of S. pneumoniae (strain GC 1894), and a vancomycin resistant strain of E. fecalis (strain GC 6189 and GC 2246). Female mice, CD-1 (Charles River Laboratories), 20+/−2 gm, are challenged by intraperitoneal injection of sufficient bacteria (suspended in /trypticase Soy Broth or hog gastric mucin) to kill non-treated controls within 24-48 hr. Antibacterial agents, contained in 0.2 mL of saline or 5% dextrose solution, are administered intravenously 30 min. after infection. Five mice are treated at each dose level. The 7 day survival ratios from 3 separate tests are pooled for calculation of median effective dose (ED50).

COc1cccc(C2OCC3OC(OC4C(CO)OC(Oc5ccc(CC6NC(=O)C(C(C)c7ccccc7)NC(=O)CNC(=O)C(CO)NC(=O)C(C(O)C7CNC(=N)N7C7OC(CO)C(O)C(O)C7O)NC(=O)C(C(O)C7CNC(=N)N7)NC6=O)cc5)C(O)C4O)C(O)C(O)C3O2)c1 (stereo not drawn) [Example 137, Cyclo[glycyl-β-methylphenylalanyl-O-[4-O-[4,6-O-(3-methoxybenzylidene)hexopyranosyl]-hexopyranosyl]tyrosyl-3-(2-iminoimidazolidin-4-yl)seryl-3-(3-hexopyranosyl-2-iminoimidazolidin-4-yl)serylseryl]]
MIC Enterococcus avium (GC 4558) ([1]; Enterococcus avium (GC 4558)): 4 to 8 µg/mL
MIC Enterococcus faecalis (ATCC 29212) ([1]; Enterococcus faecalis (ATCC 29212)): 4 to 8 µg/mL
MIC Enterococcus faecalis (GC 2242) ([1]; Enterococcus faecalis (GC 2242)): 4 to 8 µg/mL
MIC Enterococcus faecalis (GC 2691) ([1]; Enterococcus faecalis (GC 2691)): 4 to 8 µg/mL
MIC Enterococcus faecalis (GC 3059) ([1]; Enterococcus faecalis (GC 3059)): 4 to 8 µg/mL
MIC Enterococcus faecalis (GC 4552) ([1]; Enterococcus faecalis (GC 4552)): 4 to 8 µg/mL
MIC Enterococcus faecalis (GC 4553) ([1]; Enterococcus faecalis (GC 4553)): 4 to 8 µg/mL
MIC Enterococcus faecalis (GC 4554) ([1]; Enterococcus faecalis (GC 4554)): 4 to 8 µg/mL
MIC Enterococcus faecalis (GC 6189) ([1]; Enterococcus faecalis (GC 6189)): 4 µg/mL (≈ 2.83 µM)
MIC Enterococcus faecium (GC 2243) ([1]; Enterococcus faecium (GC 2243)): 4 to 8 µg/mL
MIC Enterococcus faecium (GC 4556) ([1]; Enterococcus faecium (GC 4556)): 4 to 8 µg/mL
MIC Enterococcus faecium (GC 4557) ([1]; Enterococcus faecium (GC 4557)): 2 to 4 µg/mL
MIC Enterococcus faecalis (ATCC 29212) ([1]; strain ATCC 29212): 4 to 8 µg/mL
MIC Enterococcus faecalis (GC 2242) ([1]; strain GC 2242): 4 to 8 µg/mL
MIC Enterococcus faecium (GC 2243) ([1]; strain GC 2243): 4 to 8 µg/mL
MIC Enterococcus faecalis (GC 2691) ([1]; strain GC 2691): 4 to 8 µg/mL
MIC Enterococcus faecalis (GC 3059) ([1]; strain GC 3059): 4 to 8 µg/mL
MIC Enterococcus faecalis (GC 4552) ([1]; strain GC 4552): 4 to 8 µg/mL
MIC Enterococcus faecalis (GC 4553) ([1]; strain GC 4553): 4 to 8 µg/mL
MIC Enterococcus faecalis (GC 4554) ([1]; strain GC 4554): 4 to 8 µg/mL
MIC Enterococcus faecium (GC 4556) ([1]; strain GC 4556): 4 to 8 µg/mL
MIC Enterococcus faecium (GC 4557) ([1]; strain GC 4557): 2 to 4 µg/mL
MIC Enterococcus avium (GC 4558) ([1]; strain GC 4558): 4 to 8 µg/mL
MIC Enterococcus faecalis (GC 6189) ([1]; strain GC 6189): 4 µg/mL (≈ 2.83 µM)
MIC Escherichia coli (ATCC 25922) ([2]; strain ATCC 25922): 64 µg/mL (≈ 45.3 µM)
MIC Escherichia coli (GC 4559) ([2]; strain GC 4559): 32 to 64 µg/mL
MIC Escherichia coli (GC 4560) ([2]; strain GC 4560): 1 µg/mL (≈ 0.708 µM)
MIC Staphylococcus aureus (ATCC 29213) [3]: 1 to 2 µg/mL
MIC Staphylococcus aureus (GC 1131) [3]: 2 µg/mL (≈ 1.42 µM)
MIC Staphylococcus aureus (GC 3051) [3]: 1 to 2 µg/mL
MIC Staphylococcus aureus (GC 3053) [3]: 2 to 4 µg/mL
MIC Staphylococcus aureus (GC 4541) [3]: 1 to 2 µg/mL
MIC Staphylococcus aureus (GC 4542) [3]: 1 to 2 µg/mL
MIC Staphylococcus aureus (GC 4544) [3]: 2 µg/mL (≈ 1.42 µM)
MIC Staphylococcus aureus (GC 4545) [3]: 2 to 4 µg/mL
MIC Staphylococcus aureus (GC 1131) ([3]; inoculum 5×10^5 CFU/mL, strain GC 1131): 2 µg/mL (≈ 1.42 µM)
MIC Staphylococcus aureus (ATCC 29213) ([3]; strain ATCC 29213): 1 to 2 µg/mL
MIC Staphylococcus aureus (GC 3051) ([3]; strain GC 3051): 1 to 2 µg/mL
MIC Staphylococcus aureus (GC 3053) ([3]; strain GC 3053): 2 to 4 µg/mL
MIC Staphylococcus aureus (GC 4541) ([3]; strain GC 4541): 1 to 2 µg/mL
MIC Staphylococcus aureus (GC 4542) ([3]; strain GC 4542): 1 to 2 µg/mL
MIC Staphylococcus aureus-SMITH (GC 4543) ([3]; strain GC 4543): 1 to 2 µg/mL
MIC Staphylococcus aureus (GC 4544) ([3]; strain GC 4544): 2 µg/mL (≈ 1.42 µM)
MIC Staphylococcus aureus (GC 4545) ([3]; strain GC 4545): 2 to 4 µg/mL
MIC Staphylococcus haemolyticus (GC 4546) ([3]; strain GC 4546): 1 µg/mL (≈ 0.708 µM)
MIC Coagulase Negative Staphylococcus (GC 4547) ([3]; strain GC 4547): 1 to 2 µg/mL
MIC Coagulase Negative Staphylococcus (GC 4548) ([3]; strain GC 4548): 0.5 to 2 µg/mL
MIC Coagulase Negative Staphylococcus (GC 4549) ([3]; strain GC 4549): 0.5 to 1 µg/mL
MIC Coagulase Negative Staphylococcus (GC 4551) ([3]; strain GC 4551): 1 to 2 µg/mL
MIC Coagulase Negative Staphylococcus (GC 6257) ([3]; strain GC 6257): 1 µg/mL (≈ 0.708 µM)
MIC Staphylococcus aureus-SMITH (GC 4543) ([3]; strain SMITH GC 4543): 1 to 2 µg/mL
MIC Streptococcus agalactiae (GC 4564) ([4]; Streptococcus agalactiae (GC 4564)): 0.5 µg/mL (≈ 0.354 µM)
MIC Streptococcus pneumoniae (ATCC 6301) ([4]; Streptococcus pneumoniae (ATCC 6301)): 0.12 µg/mL (≈ 0.0849 µM)
MIC Streptococcus pneumoniae (GC 1894) ([4]; Streptococcus pneumoniae (GC 1894)): <0.06 µg/mL
MIC Streptococcus pneumoniae (GC 4565) ([4]; Streptococcus pneumoniae (GC 4565)): 0.25 µg/mL (≈ 0.177 µM)
MIC Streptococcus pyogenes (GC 4563) ([4]; Streptococcus pyogenes (GC 4563)): 0.25 µg/mL (≈ 0.177 µM)
MIC Streptococcus pneumoniae (ATCC 6301) ([4]; strain ATCC 6301): 0.12 µg/mL (≈ 0.0849 µM)
MIC Streptococcus pneumoniae (GC 1894) ([4]; strain GC 1894): <0.06 µg/mL
MIC Streptococcus pyogenes (GC 4563) ([4]; strain GC 4563): 0.25 µg/mL (≈ 0.177 µM)
MIC Streptococcus agalactiae (GC 4564) ([4]; strain GC 4564): 0.5 µg/mL (≈ 0.354 µM)
MIC Streptococcus pneumoniae (GC 4565) ([4]; strain GC 4565): 0.25 µg/mL (≈ 0.177 µM)
median effective dose (ED50), Staphylococcus aureus-SMITH (GC 4543) [5]: 0.24 mg/kg
